Laboratory results as given in the supplement of paper PMC10627819.

What was measured:
[1] = tested on: B. subtilis 168; assay: fitness (endpoint OD595 vs no drug) (fraction); higher = more growth
Method in brief: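 Fitness expresses the optical density reached at the stationary-phase transition as a fraction of the robust mean of no-drug control wells. It is capped at 1. Measurements were OD595 every 30 min for 14 h at 37 °C after inoculation of 384-well plates at OD595 0.01 (30 µl, or 55 µl for S. pneumoniae), minus the first reading.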

[2] = tested on: B. subtilis 168; assay: Bliss interaction score (quartile over a dose matrix) (fitness difference); higher = more antagonism (negative = synergy)
Method in brief: (§1)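 Quartiles summarise the Bliss score over technical, biological and donor/recipient replicates, where the score is observed minus expected fitness under a product model. Expected fitness uses single-drug values inferred from combination data. Fitness is OD595 at entry into stationary phase over the plate's robust no-drug mean, capped at 1.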

[3] = tested on: S. aureus DSM 20231; assay: as above
Method in brief: as §1

[4] = tested on: S. aureus Newman; assay: as above
Method in brief: as §1

[5] = tested on: S. pneumoniae D39V; assay: as above
Method in brief: as §1
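Throughout, for Bliss interaction score (quartile over a dose matrix): first quartile when negative (synergy) and third quartile when positive (antagonism).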

CO/N=C(\C(=O)N[C@@H]1C(=O)N2C(C(=O)O)=C(COC(N)=O)CS[C@H]12)c1ccco1 [Cefuroxime] + C[C@H]1COc2c(N3CCN(C)CC3)c(F)cc3c(=O)c(C(=O)O)cn1c23 [Levofloxacin]
fitness, [1], one replicate
Settings	first compound 0.04875 µg/mL	first compound 0.0975 µg/mL	first compound 0.195 µg/mL	first compound 0.39 µg/mL	first compound 0.78 µg/mL	first compound 1.562 µg/mL	first compound 3.125 µg/mL	first compound 6.25 µg/mL
partner 0.001 µg/mL	–	–	0.284	0.15	0.156	–	–	–
partner 0.002 µg/mL	0.503	0.466	–	0.146	0.112	–	–	–
partner 0.0039 µg/mL	0.498	0.456	–	0.127	0.0881	–	–	–
partner 0.0078 µg/mL	0.432	0.397	0.334	–	–	–	–	–
partner 0.0312 µg/mL	0.055	0.0225	0.0495	–	–	0.0432	0.0263	0.0208
partner 0.0625 µg/mL	0.0626	0.0281	0.0412	–	–	0.0291	0.027	0.0162
partner 0.125 µg/mL	0.0489	0.0206	0.0412	–	–	0.0267	0.0197	0.0093

[1], first compound 0.195 µg/mL
Settings	fitness
partner 0.002 µg/mL	0.291
partner 0.0039 µg/mL	0.267

Settings	Bliss interaction score
[2]	-0.0899
[3]	-0.22
[4]	-0.146
[5]	0.0603

C[C@H]1c2cccc(O)c2C(=O)C2=C(O)[C@]3(O)C(=O)C(C(N)=O)=C(O)[C@@H](N(C)C)[C@@H]3[C@@H](O)[C@@H]21 [Doxycycline] + COc1cc(Cc2cnc(N)nc2N)cc(OC)c1OC [Trimethoprim]
fitness, [1], one replicate
Settings	partner 0.1 µg/mL	partner 0.2 µg/mL	partner 0.4 µg/mL	partner 1 µg/mL	partner 2 µg/mL
first compound 0.02 µg/mL	0.84	0.754	0.616	0.346	0.259
first compound 0.04 µg/mL	0.683	0.51	0.391	0.234	0.146
first compound 0.08 µg/mL	0.362	0.222	0.156	0.0631	0.0715

fitness, [1]
Settings	first compound 0.02 µg/mL	first compound 0.04 µg/mL	first compound 0.08 µg/mL
partner 0.125 µg/mL	0.695	0.659	0.52
partner 0.25 µg/mL	–	0.644	0.448
partner 0.5 µg/mL	–	0.412	0.262

Settings	Bliss interaction score
[2]	0.0804
[3]	0.108
[4]	0.028
[5]	-0.108

CO/N=C(\C(=O)N[C@@H]1C(=O)N2C(C(=O)O)=C(COC(C)=O)CS[C@H]12)c1csc(N)n1 [Cefotaxime] + CO[C@@H]1[C@@H](OC(N)=O)[C@@H](O)[C@H](Oc2ccc3c(O)c(NC(=O)c4ccc(O)c(CC=C(C)C)c4)c(=O)oc3c2C)OC1(C)C [Novobiocin]
fitness, [1], one replicate
Settings	first compound 0.00775 µg/mL	first compound 0.0155 µg/mL	first compound 0.031 µg/mL	first compound 0.0625 µg/mL	first compound 0.125 µg/mL	first compound 0.25 µg/mL
partner 0.05 µg/mL	0.908	0.735	0.565	–	–	–
partner 0.1 µg/mL	0.955	0.715	0.563	–	–	–
partner 0.125 µg/mL	–	–	–	0.291	0.169	0.117
partner 0.2 µg/mL	0.945	0.676	0.51	–	–	–
partner 0.25 µg/mL	–	–	–	0.112	0.0673	0.0477
partner 0.5 µg/mL	–	–	–	0.0592	0.0517	0.0477

fitness, [1]
Settings	first compound 0.5 µg/mL	first compound 1 µg/mL	first compound 2 µg/mL
partner 0.0125 µg/mL	0.27	0.122	0.127
partner 0.025 µg/mL	0.275	0.135	0.131
partner 0.05 µg/mL	0.276	0.153	0.142

Settings	Bliss interaction score
[2]	0.097
[3]	0.0739
[4]	0.0646
[5]	-0.126

COc1cccc2c1C(=O)c1c(O)c3c(c(O)c1C2=O)C[C@@](O)(C(=O)CO)C[C@@H]3O[C@H]1C[C@H](N)[C@H](O)[C@H](C)O1 [Doxorubicin] + CO[C@@H]1[C@@H](OC(N)=O)[C@@H](O)[C@H](Oc2ccc3c(O)c(NC(=O)c4ccc(O)c(CC=C(C)C)c4)c(=O)oc3c2C)OC1(C)C [Novobiocin]
fitness, [1]
Settings	first compound 0.625 µg/mL	first compound 1.25 µg/mL	first compound 2.5 µg/mL
partner 0.0125 µg/mL	0.984	0.931	0.787
partner 0.025 µg/mL	0.971	0.893	0.727
partner 0.05 µg/mL	0.993	0.938	0.631

fitness, [1], one replicate
Settings	partner 0.1 µg/mL	partner 0.125 µg/mL	partner 0.2 µg/mL	partner 0.25 µg/mL	partner 0.5 µg/mL
first compound 0.625 µg/mL	0.972	0.912	≥ 1	0.793	0.516
first compound 1.25 µg/mL	0.99	0.901	0.971	0.785	0.305
first compound 2.5 µg/mL	0.571	0.834	0.588	0.386	0.0091

Settings	Bliss interaction score
[2]	0.0565
[3]	-0.0601
[4]	-0.082
[5]	-0.106
